In data set [1] the target is T1, D2 dopamine receptor (D2R) (Homo sapiens, UniProt P14416).
T1 construct: Flag; host or cells: HEK293T/17
As to the kind of experiment: BRET assay for G protein activation in live cells, D2R-Go. The format is cell-based. Particulars: for antagonistic activity on D2R (inhibition of BRET signal): preincubation with ligand, then 1 μM dopamine. The text has this:
FIGS. 35(A-C) illustrate characterizing the activity of BRM, MTP, DOX, and TAM on dopamine and adrenaline receptors (A) Schematic representation of the BRET assay used to evaluate actions of drugs on selected GPCRs. […] The free Venus-Gβγ then interacts with the Gβγ-effector mimetic masGRK3ct-Nluc to produce the BRET signal. GDP, guanosine diphosphate; GRK, G protein-coupled receptor kinase; Nluc, nanoluciferase. (B) Left: Representative BRET signal traces recorded upon activation of D4R with indicated drugs in cells expressing Gαo and Venus-Gβγ, illustrating the agonism assay. Right: Representative traces of D2R responses to 1 μM dopamine in the absence (control) or presence of indicated drugs, illustrating antagonism assay. Note that, in the antagonism assay shown, the black trace overlaps with the red trace and therefore is not visible. (C) Top: Quantification of agonistic activity of ligands on D2R, D4R, D1R, and ADRA1A. D2R-GO, D4R-GO, D1R-Gs, and ADRA1A-Gq signaling were reconstituted in HEK293T/17 cells by transient transfection separately. Maximum amplitudes induced by dopamine (DA; 100 μM), noradrenaline (NA; 100 μM), BRM (25 μM), MTP (100 μM), DOX (50 μM), and TAM (100 μM) were plotted as bar graphs. […] The activity is plotted as percent inhibition. Data are means±SD. […]
BRET experiments were performed as previously reported with slight modifications. […] BRET measurements were performed using a microplate reader (POLARstar Omega, BMG Labtech) equipped with two emission photomultiplier tubes. […] The BRET signal is determined by calculating the ratio of the light emitted by Gβ1γ2-Venus (535 nm) over the light emitted by masGRK3ct-Nluc (475 nm). The average baseline value recorded before agonist stimulation was subtracted from BRET signal values, and the resulting difference (ABRET ratio) was obtained.
We used a real-time kinetic assay in which G protein activation by GPCRs is quantified by monitoring changes in the bioluminescence resonance energy transfer (BRET) signal between Venus-tagged Gβγ and its luciferase-tagged reporter in living cells (FIG. 35A). […]
A general note: BRET reads energy transfer from a luciferase to a nearby fluorophore.

Data set [2] is described as follows: Quantification of selected drugs in mouse serum and eye by LC-MS. The format is in vivo, C57BL/6J WT mice. The procedure:
C57BL/6J WT mice at 6 weeks of age (Jackson Laboratory) were treated with DOX, GUB, or SQ at a single dose of 10, 2, and 0.5 mg per kilogram, respectively. The compound was dissolved in 50% DMSO in PBS (137 mM NaCl, 2.7 mM KCl, 0.67 mM […]). Next, to precipitate excess proteins, 0.3 ml of methanol was added to both the eye homogenate and 0.1 ml of serum. Samples were vortexed for 30 s followed by centrifugation for 15 min at 16,000 g. Clear supernatants were collected and used directly for LC-MS analysis. 2HPO4/KH2PO4, pH 7.4) and administrated by intraperitoneal injection. Thirty minutes later the mice were anesthetized. Blood samples were collected using the technique of cardiac puncture and subsequently centrifuged (5 min, 16,000 g) to collect serum. Prior to harvesting eyes, mice were intracardially perfused with PBS to minimalize blood contamination. Eye balls were immediately homogenized in 0.1 ml of PBS. The homogenate and serum samples were spiked with 100 pmols of internal standard (IS) (parazosin—2-[4-(2-furoyl)piperazin-1-yl]-6,7-dimethoxyquinazolin-4-amine (Sigma Aldrich) or clenbuterol—(RS)-1-(4-Amino-3,5-dichlorophenyl)-2-(tert-butylamino)ethanol (Sigma Aldrich)) for DOX, GUB or SQ quantification, respectively.
Mass spectrometry (MS) based detection and quantification of DOX, GUB, and SQ was performed with a L×Q linear ion trap mass spectrometer (Thermo Scientific) equipped with an electrospray ionization (ESI) interface and coupled to Agilent 1100 HPLC (Agilent Technologies). Separation of drugs and the internal standards was achieved on a reverse phase C18 Phenomenex HPLC column (250×4.60 mm; 5 μm) by a linear gradient of to 100% acetonitrile in water within 15 min at flow rate of 0.5 ml/min. All solvents contained 0.1% formic acid (v/v). The HPLC effluent was sprayed into the MS via an ESI probe operated in the positive ionization mode. Parameters of ionization and detection were tuned with synthetic standards for the drugs to achieve the highest possible sensitivity. Dox and parazosin (internal standard) were detected by selected reaction monitoring (SRM) using m/z 452.2→344.2 and 384.2→247.1 transitions whereas GUB, SQ and their corresponding IS, clenbuterol, was by fragmentation at m/z 231.1→214.0, 206.1→136.0, and 277.1→259.1, respectively. The elution times for DOX, GUB, and SQ were ˜12.8, 12.3, and 10.8 min, respectively. Both internal standards eluted at 12.0 min (FIG. 34). Calibration curves were calculated based on the linear relationship between ratios of SRM ion intensity peak area corresponding to the selected drug and the IS vs. molar ratios of the compounds in the range of 20-500 pmol (FIG. 34H).

The test system of data set [3] is Abca4−/−Rdh8−/− mice. Kind of data set: Bright light-induced retinal degeneration in Abca4−/−Rdh8−/− mice, ERG retinal function. Particulars: pretreatment before light 10,000 lux 30 min; ERG 7 days to 2 weeks after; listed as DOX.

The text below walks through data of patent publication US10426773B2, “Systems pharmacology for treating ocular disorders” (Case Western Reserve Univeristy, priority 2011, dated 2019).

“Also recorded” adds a separate entry of the source. Where a name gives a salt, the structure may show the parent alone.

T1 sequence (P14416 whole entry): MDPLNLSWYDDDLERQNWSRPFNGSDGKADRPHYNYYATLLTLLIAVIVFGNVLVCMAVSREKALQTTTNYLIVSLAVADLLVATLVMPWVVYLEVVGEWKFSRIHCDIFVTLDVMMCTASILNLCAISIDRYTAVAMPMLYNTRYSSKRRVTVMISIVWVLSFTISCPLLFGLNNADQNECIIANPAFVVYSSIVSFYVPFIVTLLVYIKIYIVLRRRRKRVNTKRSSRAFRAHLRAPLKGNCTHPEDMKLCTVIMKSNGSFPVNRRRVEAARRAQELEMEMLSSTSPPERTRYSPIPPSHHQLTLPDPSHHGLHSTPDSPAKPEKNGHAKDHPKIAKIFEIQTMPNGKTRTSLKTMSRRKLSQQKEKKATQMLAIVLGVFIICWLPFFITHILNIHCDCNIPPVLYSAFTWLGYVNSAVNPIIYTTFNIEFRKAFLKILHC

For the compound `CCOc1ccccc1OCCN[C@H](C)Cc1ccc(OC)c(S(N)(=O)=O)c1.Cl` [Tamsulosin], the “antagonistic activity on D2R (inhibition of BRET signal)” value in data set [1] is given as “antagonistic activity”.
On to `COCCc1ccc(OCC(O)CNC(C)C)cc1` (stereo not shown) [MTP, metoprolol tartrate], for which the “agonistic activity on D2R (BRET signal)” value in data set [1] (HEK293T/17 cells, BRM 25 μM, MTP 100 μM, DOX 50 μM, TAM 100 μM) was “no agonistic or antagonistic effects”. The “antagonistic activity on D2R (inhibition of BRET signal)” value in data set [1] is given as “no agonistic or antagonistic effects”.
On to `COc1cc2nc(N3CCN(C(=O)C4COc5ccccc5O4)CC3)nc(N)c2cc1OC.CS(=O)(=O)O` (stereo not shown) [Doxazosin], for which, in data set [2] (30 min after a single ip dose: DOX 10, GUB 2, SQ 0.5 mg per kilogram, mice perfused with PBS), the “Eye ± SD” value turned out to be 11.0 ± 1.7 pmol/eye. Moreover, the concentration at 30 min in data set [2] (C57BL/6J, mouse, serum, intraperitoneal, 30 min after a single ip dose: DOX 10, GUB 2, SQ 0.5 mg per kilogram, read-out: Serum ± SD) worked out at 465 ± 128 nM. The “amount in eye compared with level in 0.1 mL of serum” value in data set [2] (eye volume taken as about 0.1 mL) was determined as 5 times lower. Moreover, the “retinal function by ERG (a-wave and b-wave amplitudes)” value in data set [3] is on record as “substantial preservation of the scotopic ERG response; also recorded: substantial preservation of this response”.
